Test results published in BigSolDB 2.1.

Conditions: in acetone

CC[C@H](C)C(=O)O[C@H]1C[C@@H](C)C=C2C=C[C@H](C)[C@H](CC[C@@H]3C[C@@H](O)CC(=O)O3)[C@H]21
solubility (mole fraction) (278.65 K): 0.00637 | solubility (mole fraction) (283.2 K): 0.00742 | solubility (mole fraction) (288.2 K): 0.00869 | solubility (mole fraction) (293.25 K): 0.0104 | solubility (mole fraction) (298.75 K): 0.0123 | solubility (mole fraction) (303.95 K): 0.0157 | solubility (mole fraction) (308.25 K): 0.0183 | solubility (mole fraction) (313.25 K): 0.0226 | solubility (mole fraction) (318.15 K): 0.0272 | solubility (mole fraction) (322.65 K): 0.0321
